Columns and labels:
TNBC cells = test: MTT viability assay, parental TNBC cells (lines not singled out); format: cell-based
Method: In vitro inhibition of cell growth was assessed by MTT (3-[4, 5-dimethyltiazol-2-yl]-2.5-diphenyl tetrazolium bromide) reagent. Cells (5×10^3) were seeded in a 96-well culture plate and subsequently treated with respective agents at different concentrations as mentioned. Control cells were treated with 0.1% DMSO in culture medium. After treatment, the cells were incubated with 1 mg/ml of MTT reagent at 37° C. for 2-4 hours and then MTT was removed and 50 μL of DMSO was added, followed by colorimetric analysis using a multi-label plate reader at 560 nm (Victor3; PerkinElmer, Wellesley, Mass., USA).

[1] = system: Src, MET, and STAT3 kinases in TNBC cells; test: Western blot, oncogenic tyrosine kinases; format: cell-based
Method: (§1) For protein expression analysis, Western blot (WB) experiments were performed according to the standard procedures. The cells were either untreated or treated with various agents either alone or in combinations as indicated. Following treatment durations, the cells were lysed in cell lysis (10×) buffer (#9803; cell signaling) containing 0.1% of protease and phosphatase inhibitor cocktail (Sigma) for 20 min at 4° C. The lysates were centrifuged at 14,000 rpm at 4° C. for 15-20 min to remove debris. Protein concentrations of whole cell lysates were determined using the Protein Assay Kit. Supernatant proteins, 50-100 μg from each sample, were separated by SDS-polyacrylamide gel electrophoresis (SDS-PAGE) and transferred to polyvinylidene difluoride (PVDF) membrane (Bio-rad, Hercules, Calif.) by standard procedures. […] The antibody-bound proteins were visualized by treatment with the chemiluminescence detection reagent according to manufacturer's instructions, followed by exposure to X-ray film (Denville Scientific Inc.). The same membranes were re-probed with the anti-β-actin or anti-α-tubulin antibody, which was used as an internal control for protein loading.

[2] = system: CARP-1, cyclin B1, cleaved PARP, caspase-8, p38, MKK4, JNK1/2 in TNBC cells; test: Western blot, apoptosis and SAPK signaling; format: cell-based
Method: as §1

[3] = system: Klf4, Oct4, SOX2, CD133 in MDA-MB-231 TNBC cells; test: Western blot, cancer stem cell markers; conditions: parental and ADR-resistant MDA-MB-231; FIG. 14B
Method: as §1

[4] = system: MCF-7, SK-BR-3 and MDA-MB-453 breast cancer cells; test: MTT viability assay, ADR plus CFM-4.16 in non-TNBC breast cancer cells; format: cell-based; conditions: not shown

Structure (SMILES): O=C1N(Cc2ccccc2Cl)c2ccccc2C12NN=C(c1cccc(Cl)c1)S2 (stereo not drawn) [CFM-4.16]
- CC50 (TNBC cells): 7 to 8 µM
- effect on ADR-mediated inhibition of viability (TNBC cells; 5 μM each, combination, 6 h, FIG. 3C): enhanced ADR-mediated inhibition of viability
- loss of cell viability compared with ADR-treated cell line (TNBC cells; 5 μM, 6 h, FIG. 3C): greater loss of cell viability
- growth of wild-type TNBC cells (TNBC cells; 12 h, FIGS. 4A-4E): inhibited growth
- activity relative to parent compound CFM-4 or other analogs (TNBC cells; SAR screen of twelve analogs): superior
- GI50 (TNBC cells; read-out: dose for inhibition of TNBC cells growth by 50% (GI50)): ~2 µM
- activation of STAT3 ([1]; ADR as well as Cisplatin-resistant human TNBC cells, FIGS. 7A and 8C): robustly attenuated
- activation and/or expression of MET and Src tyrosine kinases ([1]; parental and drug-resistant human and murine TNBC cells): reduced activation and/or expression
- apoptosis and SAPK markers in parental and drug-resistant TNBC cells ([2]; FIGS. 5A-5C, 6A-6D): activated pro-apoptotic SAPKs p38α/β and JNK1/2, caspase-8, while causing cleavage of PARP and decline in mitotic cyclin B1 levels
- activation of pro-apoptotic SAPKs in comparison with CFM-4 ([2]; parental and resistant TNBC cells, FIG. 5C): rather robust activation of both the pro-apoptotic SAPKs
- levels of Oct4 [3]: robust decline in levels of Oct4
- effect on ADR-mediated growth inhibition [4]: failed to enhance ADR-mediated growth inhibition
